The subject of experiment [1] is thapsigargin-induced IFN-g production in human whole blood. It is filed as cell-based.
In experiment [2] the test system is thapsigargin-induced IL-2 production in human whole blood.
The mark [3] stands for this setting: read-out: Analogue Activity (IC50) WB/IFNg.
Where [4] appears, read: read-out: Analogue Activity (IC50) WB/IL-2.

pIC50: −log10 of the molar value. Read-outs that look alike come from different tables or passages of the source. Bridge positions count the residues as written; N and C are the ends. Square brackets hold non-standard residues; d marks the D form. Peptide text beside a SMILES is read from it. 1Nal = N[C@@H](Cc1cccc2ccccc12)C(=O)O

`CC[C@H](C)[C@@H]1NC(=O)[C@H](CCCCN)NC(=O)[C@@H](NC(=O)[C@H](CCCCN)NC(=O)[C@@H](NC(=O)[C@H](Cc2cccc3ccccc23)NC(=O)[C@@H](NC(=O)[C@@H](NC(=O)[C@@H](NC(=O)CN)C(C)C)[C@@H](C)CC)[C@@H](C)CC)C(C)C)CSSC[C@@H]2NC(=O)[C@H](CCCCN)NC(=O)CNC(=O)[C@H](Cc3ccccc3)NC(=O)[C@H](CCCNC(=N)N)NC(=O)[C@H](CCSC)NC(=O)CNC(=O)[C@H](C)NC(=O)[C@H](CCCCN)NC(=O)[C@H](CCCCN)NC(=O)[C@@H]3CSSC[C@@H](C(=O)N[C@H](C(=O)N4CCC[C@H]4C(=O)N[C@@H](CCCCN)C(=O)O)[C@@H](C)O)NC(=O)[C@H](Cc4c[nH]cn4)NC(=O)[C@H](CSSC[C@H](NC(=O)[C@H](CCC(N)=O)NC(=O)[C@H](CCCNC(=N)N)NC(=O)[C@H](CO)NC1=O)C(=O)N[C@@H](CC(C)C)C(=O)N[C@@H](CCC(=O)O)C(=O)N1CCC[C@H]1C(=O)N3)NC(=O)[C@H](CCCCN)NC(=O)CNC(=O)[C@H](CC(N)=O)NC(=O)[C@H](CCSC)NC2=O` [N5Nal] (H-GVII[1Nal]VKCKISRQCLEPCKKAGMRFGKCMNGKCHCTPK-OH; disulfide 8-28, 14-33, 18-35): the pIC50 in experiment [1] (setting [3]) is 9.37; in experiment [2] (setting [4]), 9.12.

`CC[C@H](C)[C@@H]1NC(=O)[C@H](CCCCN)NC(=O)[C@@H](NC(=O)[C@H](CCCCN)NC(=O)[C@@H](NC(=O)[C@H](CC(N)=O)NC(=O)[C@@H](NC(=O)[C@@H](NC(=O)[C@@H](NC(=O)CN)C(C)C)[C@@H](C)CC)[C@@H](C)CC)C(C)C)CSSC[C@@H]2NC(=O)[C@H](CCCCN)NC(=O)CNC(=O)[C@H](Cc3ccccc3)NC(=O)[C@H](CCCNC(=N)N)NC(=O)[C@H](CCSC)NC(=O)CNC(=O)[C@H](C)NC(=O)[C@H](CCCCN)NC(=O)[C@H](CCCCN)NC(=O)[C@@H]3CSSC[C@@H](C(=O)N[C@H](C(=O)N4CCC[C@H]4C(=O)N[C@@H](CCC(=O)O)C(=O)O)[C@@H](C)O)NC(=O)[C@H](Cc4c[nH]cn4)NC(=O)[C@H](CSSC[C@H](NC(=O)[C@H](CCC(N)=O)NC(=O)[C@H](CCCNC(=N)N)NC(=O)[C@H](CO)NC1=O)C(=O)N[C@@H](CC(C)C)C(=O)N[C@@H](CCC(=O)O)C(=O)N1CCC[C@H]1C(=O)N3)NC(=O)[C@H](CCCCN)NC(=O)CNC(=O)[C@H](CC(N)=O)NC(=O)[C@H](CCSC)NC2=O` [K38E] (H-GVIINVKCKISRQCLEPCKKAGMRFGKCMNGKCHCTPE-OH; disulfide 8-28, 14-33, 18-35): the pIC50 in experiment [1] (setting [3]) was 9.15; in experiment [2] (setting [4]), 9.28.

Take “GVIINVKCKISAQCLEPCKKAGMRFGKCMNGKCHCTPK [Ala-12 (SEQ ID No: 1410)]”: the pIC50 in experiment [1] (read-out: Average IC50 IFNg) was 9.81; in experiment [2] (read-out: Average IC50 IL-2), 9.91.

Regarding `CC[C@H](C)[C@@H]1NC(=O)[C@H](CCCCN)NC(=O)[C@@H](NC(=O)[C@H](CCCCN)NC(=O)[C@@H](NC(=O)[C@H](CC(N)=O)NC(=O)[C@@H](NC(=O)[C@@H](NC(=O)[C@H](CCCNC(=N)N)NC(=O)CN)[C@@H](C)CC)[C@@H](C)CC)C(C)C)CSSC[C@@H]2NC(=O)[C@H](CCCCN)NC(=O)CNC(=O)[C@H](Cc3ccccc3)NC(=O)[C@H](CCCNC(=N)N)NC(=O)[C@H](CCSC)NC(=O)CNC(=O)[C@H](C)NC(=O)[C@H](CCCCN)NC(=O)[C@H](CCCCN)NC(=O)[C@@H]3CSSC[C@@H](C(=O)N[C@H](C(=O)N4CCC[C@H]4C(=O)N[C@@H](CCCCN)C(=O)O)[C@@H](C)O)NC(=O)[C@H](Cc4c[nH]cn4)NC(=O)[C@H](CSSC[C@H](NC(=O)[C@H](CCC(N)=O)NC(=O)[C@H](CCCNC(=N)N)NC(=O)[C@H](CO)NC1=O)C(=O)N[C@@H](CC(C)C)C(=O)N[C@@H](CCC(=O)O)C(=O)N1CCC[C@H]1C(=O)N3)NC(=O)[C@H](CCCCN)NC(=O)CNC(=O)[C@H](CC(N)=O)NC(=O)[C@H](CCSC)NC2=O` [V2R] (H-GRIINVKCKISRQCLEPCKKAGMRFGKCMNGKCHCTPK-OH; disulfide 8-28, 14-33, 18-35), the pIC50 in experiment [1] (setting [3]) is 9.01; in experiment [2] (setting [4]) it was 9.11.

In the case of “GAIINVKCKISRQCLEPCKKAGMRFGKCMNGKCHCTPK [Ala-2 (SEQ ID No: 1401)]”, the pIC50 was 9.99 in experiment [1] (read-out: Average IC50 IFNg) and 10.05 in experiment [2] (read-out: Average IC50 IL-2).

Regarding “GVIINVKCKISRQCLEPCKKAAMRFGKCMNGKCHCTPK [Ala-22 (SEQ ID No: 1418)]”, the pIC50 in experiment [1] (read-out: Average IC50 IFNg) and in experiment [2] (read-out: Average IC50 IL-2) was 8.15 each time.

As to `CC[C@H](C)[C@@H]1NC(=O)[C@H](CCCCN)NC(=O)[C@@H](NC(=O)[C@H](CCCCN)NC(=O)[C@@H](NC(=O)[C@H](CC(N)=O)NC(=O)[C@@H](NC(=O)[C@@H](NC(=O)[C@@H](NC(=O)CN)C(C)C)[C@@H](C)CC)[C@@H](C)CC)C(C)C)CSSC[C@@H]2NC(=O)[C@H](CCCCN)NC(=O)CNC(=O)[C@H](Cc3ccccc3)NC(=O)[C@H](CCCNC(=N)N)NC(=O)[C@H](CCSC)NC(=O)[C@H](Cc3cccc4ccccc34)NC(=O)[C@H](C)NC(=O)[C@H](CCCCN)NC(=O)[C@H](CCCCN)NC(=O)[C@@H]3CSSC[C@@H](C(=O)N[C@H](C(=O)N4CCC[C@H]4C(=O)N[C@@H](CCCCN)C(=O)O)[C@@H](C)O)NC(=O)[C@H](Cc4c[nH]cn4)NC(=O)[C@H](CSSC[C@H](NC(=O)[C@H](CCC(N)=O)NC(=O)[C@H](CCCNC(=N)N)NC(=O)[C@H](CO)NC1=O)C(=O)N[C@@H](CC(C)C)C(=O)N[C@@H](CCC(=O)O)C(=O)N1CCC[C@H]1C(=O)N3)NC(=O)[C@H](CCCCN)NC(=O)CNC(=O)[C@H](CC(N)=O)NC(=O)[C@H](CCSC)NC2=O` [G22Nal] (H-GVIINVKCKISRQCLEPCKKA[1Nal]MRFGKCMNGKCHCTPK-OH; disulfide 8-28, 14-33, 18-35), the pIC50 in experiment [1] (setting [3]) was 7.97; in experiment [2] (setting [4]) it was 7.99.

Take `CC[C@H](C)[C@@H]1NC(=O)[C@H](CCCCN)NC(=O)[C@@H](NC(=O)[C@H](CCCCN)NC(=O)[C@@H](NC(=O)[C@H](CC(N)=O)NC(=O)[C@@H](NC(=O)[C@@H](NC(=O)[C@@H](NC(=O)CN)C(C)C)[C@@H](C)CC)[C@@H](C)CC)C(C)C)CSSC[C@@H]2NC(=O)[C@H](CCCCN)NC(=O)CNC(=O)[C@H](Cc3cccc4ccccc34)NC(=O)[C@H](CCCNC(=N)N)NC(=O)[C@H](CCSC)NC(=O)CNC(=O)[C@H](C)NC(=O)[C@H](CCCCN)NC(=O)[C@H](CCCCN)NC(=O)[C@@H]3CSSC[C@@H](C(=O)N[C@H](C(=O)N4CCC[C@H]4C(=O)N[C@@H](CCCCN)C(=O)O)[C@@H](C)O)NC(=O)[C@H](Cc4c[nH]cn4)NC(=O)[C@H](CSSC[C@H](NC(=O)[C@H](CCC(N)=O)NC(=O)[C@H](CCCNC(=N)N)NC(=O)[C@H](CO)NC1=O)C(=O)N[C@@H](CC(C)C)C(=O)N[C@@H](CCC(=O)O)C(=O)N1CCC[C@H]1C(=O)N3)NC(=O)[C@H](CCCCN)NC(=O)CNC(=O)[C@H](CC(N)=O)NC(=O)[C@H](CCSC)NC2=O` [F25Nal] (H-GVIINVKCKISRQCLEPCKKAGMR[1Nal]GKCMNGKCHCTPK-OH; disulfide 8-28, 14-33, 18-35): the pIC50 is 8.77 in experiment [1] (setting [3]) and 8.76 in experiment [2] (setting [4]).

Source of the values: patent US7820623B2 (priority 2006, dated 2010).
